Like-named read-outs stand apart in the source and are kept apart here.
Experiments:
[1] = system: Phytophthora infestans (PHYTIN); test: microbe, parasite or virus in culture; assay type: cell-based; conditions: Phytophthora infestans, read-out: PHYTIN in vitro Growth Inhibition
[2] = system: Stagonospora nodorum (Leptosphaeria nodorum—LEPTNO); test: In vitro fungal growth inhibition, Stagonospora nodorum (LEPTNO); assay type: cell-based; conditions: Leptosphaeria, read-out: LEPTNO in vitro Growth Inhibition
[3] = system: Puccinia recondita—PUCCRT; test: Brown Rust of Wheat, in vivo whole plant, 24 Hour Protectant; conditions: for pest or weed control at 100 ppm: Puccinia, read-out: PUCCRT in vivo 1 Day Protectant
[4] = system: Phytophthora infestans—PHYTIN; test: whole plant or invertebrate; assay type: in vivo; conditions: Phytophthora, in Solanum lycopersicum, 24 h, read-out: PHYTIN in vivo 1 Day Protectant
[5] = system: Mycosphaerella graminicola (Septoria tritici—SEPTTR); test: In vitro fungal growth inhibition, Mycosphaerella graminicola (SEPTTR); assay type: cell-based; conditions: Zymoseptoria tritici, read-out: SEPTTR in vitro Growth Inhibition
[6] = system: Rhizoctonia solani (RHIZSO); test: microbe, parasite or virus in culture; assay type: cell-based; conditions: Rhizoctonia solani, read-out: RHIZSO in vitro Growth Inhibition
Septoria tritici—SEPTTR = test: Leaf Blotch of Wheat, in vivo whole plant, 24 Hour Protectant; conditions: for pest or weed control at 100 ppm: Zymoseptoria tritici, 24 h, control of fungal infection vs untreated plants, read-out: SEPTTR in vivo 1 Day Protectant
[7] = system: Magnaporthe grisea (Pyricularia oryzae—PYRIOR); test: microbe, parasite or virus in culture; assay type: cell-based; conditions: Pyricularia oryzae, read-out: PYRIOR in vitro Growth Inhibition
Erysiphe graminis—ERYSGT = test: Powdery Mildew of Wheat, in vivo whole plant, 24 Hour Protectant; conditions: for pest or weed control at 100 ppm: Erysiphe, control of fungal infection vs untreated plants, read-out: ERYSGT in vivo 1 Day Protectant
[8] = system: Leptosphaeria nodorum—LEPTNO; test: Glume Blotch of Wheat, in vivo whole plant, 24 Hour Protectant; conditions: Leptosphaeria, read-out: LEPTNO in vivo 1 Day Protectant
Ustilago maydis (USTIMA) = test: microbe, parasite or virus in culture; assay type: cell-based; conditions: Mycosarcoma maydis, read-out: USTIMA in vitro Growth Inhibition
[9] = 100 ppm spray, 24 hour protectant, wheat, control of fungal infection vs untreated plants
[10] = 100 ppm spray, 24 hour protectant, wheat
[11] = 100 ppm spray, wheat, 24 hour protectant, control of fungal infection vs untreated plants
[12] = 100 ppm spray, wheat, 24 hour protectant
[13] = wheat plants sprayed at 100 ppm, inoculated after 24 hours, control of fungal infection vs untreated plants
[14] = wheat plants sprayed at 100 ppm, inoculated after 24 hours
[15] = 100 ppm spray, wheat, 24 hour protectant, % control of fungal infection vs untreated plants

SMILES	inhibition at 25 ppm [1] [%]	inhibition at 25 ppm ([2]; 25 ppm in growth medium) [%]	pest or weed control at 100 ppm [4] [%]	inhibition at 25 ppm ([5]; 25 ppm in growth medium) [%]	inhibition at 25 ppm [6] [%]	inhibition at 25 ppm [7] [%]	inhibition at 25 ppm (Ustilago maydis (USTIMA)) [%]	pest or weed control at 100 ppm [3, 11] [%]	pest or weed control at 100 ppm (Septoria tritici—SEPTTR; [12]) [%]	pest or weed control at 100 ppm (Erysiphe graminis—ERYSGT; [12]) [%]	pest or weed control at 100 ppm [8, 11] [%]	other results
CC1(C)CC(NC(=O)c2ncccc2O)CC(C)(C2CC2)C1 (stereo not drawn) [Compound 204]	< 80	< 80	< 25	< 80	< 80	< 80	< 80					pest or weed control at 100 ppm [3, 9]: < 25%; pest or weed control at 100 ppm (Septoria tritici—SEPTTR; [10]): 25 to 74%; pest or weed control at 100 ppm (Erysiphe graminis—ERYSGT; [10]): < 25%; pest or weed control at 100 ppm [8, 9]: < 25%
COc1ccnc(C(=O)NC2CC(=O)OCC(C)COC2=O)c1O (stereo not drawn) [Compound 378]	< 80	< 80	< 25	< 80	< 80	< 80	< 80	< 25	< 25	< 25	25 to 74	
COc1ccnc(C(=O)NC2CC(C)(C)C(OC(=O)CC(C)C)C(C)(C)C2)c1O (stereo not drawn) [Compound 267]	> 80	> 80	< 25	< 80	< 80	< 80	> 80					pest or weed control at 100 ppm [3, 9]: 25 to 74%; pest or weed control at 100 ppm (Septoria tritici—SEPTTR; [10]): < 25%; pest or weed control at 100 ppm (Erysiphe graminis—ERYSGT; [10]): < 25%; pest or weed control at 100 ppm [8, 9]: 25 to 74%
COc1ccnc(C(=O)NC(COC(=O)C(Cc2ccccc2)C(C)O[Si](C)(C)C(C)(C)C)C(=O)OC(C)C)c1O (stereo not drawn) [Compound 357]	< 80		< 25		< 80	< 80	< 80		< 25	< 25	25 to 74	inhibition at 25 ppm [2]: < 80%; PUCCRT in vivo 1 Day Protectant [3, 11]: + +; inhibition at 25 ppm [5]: < 80%
COc1ccnc(C(=O)Nc2ccc(C(=O)c3cccc(C(F)(F)F)c3)cc2)c1O [Compound 405]	< 80	> 80	< 25	< 80	< 80	< 80	< 80	< 25	< 25	< 25	25 to 74	
COc1ccnc(C(=O)Nc2ccc(Oc3cccc(C(F)(F)F)c3)cc2)c1O [Compound 424]	< 80	> 80	25 to 74	< 80	< 80	< 80	< 80	25 to 74	25 to 74	25 to 74	25 to 74	
COc1ccnc(C(=O)NC2C[C@H](C)O[C@](C)(Cc3ccccc3)C2)c1O (stereo partly drawn) [Compound 313]	< 80	< 80	< 25	< 80	< 80	< 80	< 80					pest or weed control at 100 ppm [3, 9]: 25 to 74%; pest or weed control at 100 ppm (Septoria tritici—SEPTTR; [10]): 25 to 74%; pest or weed control at 100 ppm (Erysiphe graminis—ERYSGT; [10]): 25 to 74%; pest or weed control at 100 ppm [8, 9]: 25 to 74%
COc1ccnc(C(=O)Nc2cccc(Oc3ccccc3Cl)c2)c1O [Compound 439]	< 80	< 80	< 25	< 80	< 80	< 80	< 80	25 to 74	< 25	< 25	25 to 74	
COc1ccnc(C(=O)N[C@H]2O[C@@H](C)[C@@H](OC(C)=O)[C@@H](OC(C)=O)[C@@H]2OC(C)=O)c1O [Compound 333]	< 80	< 80	< 25	< 80	< 80	< 80	< 80	25 to 74	25 to 74	< 25	25 to 74	
COc1ccnc(C(=O)Nc2ccccc2Oc2ccccc2C#N)c1O [Compound 418]	< 80	< 80	< 25	< 80	< 80	< 80	< 80	25 to 74	< 25	< 25	< 25	
COc1ccc(O)c(C(=O)NC2COC(=O)[C@H](Cc3ccccc3)[C@@H](OC(=O)C(C)C)[C@H](C)OC2=O)n1 (stereo partly drawn) [Compound 481]	< 80		< 25		< 80	< 80	< 80					inhibition at 25 ppm ([2]; 25 ppm in the growth medium): < 80%; pest or weed control at 100 ppm [3, 13]: < 25%; inhibition at 25 ppm ([5]; 25 ppm in the growth medium): < 80%; pest or weed control at 100 ppm (Septoria tritici—SEPTTR; [14]): 25 to 74%; pest or weed control at 100 ppm (Erysiphe graminis—ERYSGT; [14]): < 25%; pest or weed control at 100 ppm [8, 13]: 25 to 74%
COc1ccnc(C(=O)NC2O[C@H](CO)[C@H]3OC(C)(C)O[C@@H]23)c1O (stereo partly drawn) [Compound 329]	< 80	< 80	< 25	< 80	< 80	< 80	< 80	25 to 74	25 to 74	< 25	25 to 74	
COCCC(=O)Oc1c(OC)ccnc1C(=O)Nc1ccc(Sc2cccc(C(F)(F)F)c2)cc1 [Compound 712]	< 80	> 80	< 25	> 80	< 80	> 80	< 80					PUCCRT in vivo 1 Day Protectant [3, 15]: + +; SEPTTR in vivo 1 Day Protectant (Septoria tritici—SEPTTR; [15]): + +; ERYSGT in vivo 1 Day Protectant (Erysiphe graminis—ERYSGT; [15]): + +; pest or weed control at 100 ppm [8, 15]: 25 to 74%
Cc1cc(C)c(C(=O)N[C@H]2COC(=O)[C@H](Cc3ccccc3)[C@@H](OC(=O)C(C)C)[C@H](C)OC2=O)c(O)n1 [Compound 529]	< 80		< 25		< 80	< 80	< 80					inhibition at 25 ppm ([2]; 25 ppm in the growth medium): < 80%; pest or weed control at 100 ppm [3, 13]: 25 to 74%; inhibition at 25 ppm ([5]; 25 ppm in the growth medium): < 80%; pest or weed control at 100 ppm (Septoria tritici—SEPTTR; [14]): 25 to 74%; pest or weed control at 100 ppm (Erysiphe graminis—ERYSGT; [14]): < 25%; pest or weed control at 100 ppm [8, 13]: 25 to 74%
O=C(Nc1cccc(Oc2ccccc2C(F)(F)F)c1)c1nc(Br)ccc1O [Compound 494]	< 80		< 25		< 80	< 80	< 80					inhibition at 25 ppm ([2]; 25 ppm in the growth medium): < 80%; pest or weed control at 100 ppm [3, 13]: < 25%; inhibition at 25 ppm ([5]; 25 ppm in the growth medium): < 80%; pest or weed control at 100 ppm (Septoria tritici—SEPTTR; [14]): 25 to 74%; pest or weed control at 100 ppm (Erysiphe graminis—ERYSGT; [14]): < 25%; pest or weed control at 100 ppm [8, 13]: < 25%
